Assay results reported in patent US8957074B2 (Novartis AG, priority 2010, dated 2015).
Like-named read-outs stand apart in the source and are kept apart here.

Assays:
[1] = test system: phosphorylation of pRb at the Ser780 site in JeKo-1 mantle cell lymphoma cells; assay: CDK4 cellular assay: ELISA of pRb phosphorylation at Ser780 in JeKo-1 cells; type: cell-based; conditions: Homo sapiens
CDK4/cyclin D1 = CDK4/cyclin D1 (Homo sapiens (Human), UniProt P11802); assay: CDK4/cyclin D1 enzymatic activity assay (TR-FRET, phosphorylation of pRb at Ser780); type: biochemical; conditions: 0.3 nM CDK4/cyclin D1, 150 nM biotin-pRb (773-924), 3 μM ATP, 60 min at 22° C.; read-out: Biochemical CDK4 enzyme IC50
Sequence of CDK4/cyclin D1 (P11802 whole entry): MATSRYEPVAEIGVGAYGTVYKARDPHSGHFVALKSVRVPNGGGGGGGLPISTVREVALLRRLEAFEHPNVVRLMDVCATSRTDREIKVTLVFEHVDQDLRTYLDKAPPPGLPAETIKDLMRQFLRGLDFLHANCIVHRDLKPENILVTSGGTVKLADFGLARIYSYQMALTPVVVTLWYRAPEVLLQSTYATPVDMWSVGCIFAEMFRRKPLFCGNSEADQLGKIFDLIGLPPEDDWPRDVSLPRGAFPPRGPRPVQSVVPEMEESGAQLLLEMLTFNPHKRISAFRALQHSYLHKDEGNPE
Sequence of CDK4/cyclin D1 (P24385 whole entry partner): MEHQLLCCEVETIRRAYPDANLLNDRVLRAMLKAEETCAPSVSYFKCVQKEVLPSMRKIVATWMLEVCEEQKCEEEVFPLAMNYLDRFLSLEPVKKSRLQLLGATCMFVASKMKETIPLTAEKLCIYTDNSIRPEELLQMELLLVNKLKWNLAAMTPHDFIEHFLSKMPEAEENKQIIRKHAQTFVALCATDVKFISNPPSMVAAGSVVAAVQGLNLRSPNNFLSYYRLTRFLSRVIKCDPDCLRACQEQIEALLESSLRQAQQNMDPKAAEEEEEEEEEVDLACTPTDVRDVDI
In short: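 Phosphorylation at pRb Ser780, detected by TR-FRET, gave IC50s and kinetics. Enzyme: baculovirus/Sf21-expressed human CDK4/cyclin D1. ATP at 3 μM initiated the reaction; EDTA (pH 8.0) stopped it after 60 min at 22° C.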

CDK1/cyclin B = CDK1/cyclin B (Homo sapiens (Human), UniProt P06493); assay: CDK1/cyclin B enzymatic activity assay (IMAP-FP); type: biochemical; conditions: 100 nM Tamra Histone-H1 peptide, 20 μM ATP, 120 min at room temperature, read-out: Biochemical CDK1 enzyme IC50
Sequence of CDK1/cyclin B (P06493 whole entry, species assumed): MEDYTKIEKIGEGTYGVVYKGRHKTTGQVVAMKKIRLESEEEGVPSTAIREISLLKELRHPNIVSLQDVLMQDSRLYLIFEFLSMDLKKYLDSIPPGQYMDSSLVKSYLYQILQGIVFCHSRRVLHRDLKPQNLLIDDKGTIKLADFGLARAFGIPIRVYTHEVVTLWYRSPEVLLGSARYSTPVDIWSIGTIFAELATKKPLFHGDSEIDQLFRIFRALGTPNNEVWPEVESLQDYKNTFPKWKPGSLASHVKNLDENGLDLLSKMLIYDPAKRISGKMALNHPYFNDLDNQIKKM
Sequence of CDK1/cyclin B (P14635 whole entry partner, species assumed): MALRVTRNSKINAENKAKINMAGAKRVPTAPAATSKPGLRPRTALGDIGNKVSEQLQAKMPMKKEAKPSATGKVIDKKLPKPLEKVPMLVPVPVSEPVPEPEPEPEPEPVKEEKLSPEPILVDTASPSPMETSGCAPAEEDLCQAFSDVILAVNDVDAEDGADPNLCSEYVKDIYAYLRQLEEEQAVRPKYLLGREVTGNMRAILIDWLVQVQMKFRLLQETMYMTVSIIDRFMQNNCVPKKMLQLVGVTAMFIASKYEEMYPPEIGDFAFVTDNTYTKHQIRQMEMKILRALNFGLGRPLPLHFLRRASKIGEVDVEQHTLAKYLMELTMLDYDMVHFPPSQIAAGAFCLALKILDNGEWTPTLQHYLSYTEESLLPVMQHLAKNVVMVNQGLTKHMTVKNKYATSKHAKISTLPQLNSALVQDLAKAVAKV
Description: CDK1/Cyclin B Enzymatic Activity Assay
A 384-well microtiter IMAP-FP™ (Molecular Devices Trade Mark Technology) endpoint assay was used for CDK1/cyclin B kinase activity measurements. The same assay was used for IC50 determination of small molecule inhibitors.

[2] = JeKo-1, JeKo-1 cells, p-pRb % inhibition adjusted with total pRb levels, read-out: Normalized cellular ppRb inhibition IC50
[3] = JeKo-1, JeKo-1 cells, p-pRb Ser780 ELISA, non-normalized, read-out: Cellular ppRb inhibition IC50
[4] = JeKo-1 cells, p-pRb % inhibition adjusted with total pRb levels, read-out: Normalized cellular ppRb inhibition IC50
[5] = JeKo-1 cells, p-pRb Ser780 ELISA, non-normalized, read-out: Cellular ppRb inhibition IC50

**Q.** Which IC50 ([1]; JeKo-1, read-out: Cellular ppRb inhibition IC50) does the source give for `CN(C)C(=O)c1cc2cnc(Nc3ccc(C(=O)N4[C@@H]5CC[C@H]4C[C@@H](O)C5)cn3)nc2n1C1CCCC1` [Example 44, 7-Cyclopentyl-2-[5-((1S,3R,5R)-3-hydroxy-8-aza-bicyclo[3.2.1]octane-8-carbonyl)-pyridin-2-ylamino]-7H-pyrrolo[2,3-d]pyrimidine-6-carboxylic acid dimethylamide] here?
**A.** 720 to 1490 nM

**Q.** What about the IC50 ([1]; JeKo-1, read-out: Normalized cellular ppRb inhibition IC50) of the same molecule?
**A.** 778 nM

**Q.** And the IC50 (CDK4/cyclin D1)?
**A.** 177 to 351 nM

**Q.** What about the IC50 (CDK1/cyclin B; […] CDK1/cyclin B) of the same molecule?
**A.** > 15 µM

**Q.** For `CN(C)C(=O)c1cc2cnc(Nc3ccc(C(=O)N4CC5CCC(C4)N5C)cn3)nc2n1C1CCCC1` [Example 45, 7-cyclopentyl-2-[5-(8-methyl-3,8-diaza-bicyclo[3.2.1]octane-3-carbonyl)-pyridin-2-ylamino]-7H-pyrrolo[2,3-d]pyrimidine-6-carboxylic acid dimethylamide], which IC50 [1, 2] is on record?
**A.** 64 nM

**Q.** What about the IC50 [1, 3] of the same molecule?
**A.** 64 nM

**Q.** And the IC50 (CDK4/cyclin D1)?
**A.** 14 to 24 nM

**Q.** What about the IC50 (CDK1/cyclin B; […] CDK1/cyclin B) of the same molecule?
**A.** 12.8 µM

**Q.** For `CN(C)C(=O)c1cc2cnc(Nc3ccc(C(=O)N4CC5CN(Cc6ccccc6)CC(C4)O5)cn3)nc2n1C1CCCC1` [Example 46, 2-[5-(7-Benzyl-9-oxa-3,7-diaza-bicyclo[3.3.1]nonane-3-carbonyl)-pyridin-2-ylamino]-7-cyclopentyl-7H-pyrrolo[2,3-d]pyrimidine-6-carboxylic acid dimethylamide], which IC50 [1, 2] is on record?
**A.** 730 nM

**Q.** What about the IC50 [1, 3] of the same molecule?
**A.** 724 nM

**Q.** What about the IC50 (CDK4/cyclin D1) of the same molecule?
**A.** 100 nM

**Q.** And the IC50 (CDK1/cyclin B; […] CDK1/cyclin B)?
**A.** > 15 µM

**Q.** `CN(C)C(=O)c1cc2cnc(Nc3ccc(C(=O)N4CC5CNCC(C4)O5)cn3)nc2n1C1CCCC1` [Example 47, 7-Cyclopentyl-2-[5-(9-oxa-3,7-diaza-bicyclo[3.3.1]nonane-3-carbonyl)-pyridin-2-ylamino]-7H-pyrrolo[2,3-d]pyrimidine-6-carboxylic acid dimethylamide] was tested. Which IC50 [1, 4] did it give?
**A.** 352 nM

**Q.** What about the IC50 [1, 5] of the same molecule?
**A.** 315 nM

**Q.** What about the IC50 (CDK4/cyclin D1) of the same molecule?
**A.** 30 nM

**Q.** What about the IC50 (CDK1/cyclin B; […] CDK1/cyclin B) of the same molecule?
**A.** > 15 µM

**Q.** Which results are given for `CN(C)C(=O)c1cc2cnc(Nc3ccc(C(=O)N4CCN5CCC4CC5)cn3)nc2n1C1CCCC1` [Example 48, 7-Cyclopentyl-2-[5-(1,4-diaza-bicyclo[3.2.2]nonane-4-carbonyl)-pyridin-2-ylamino]-7H-pyrrolo[2,3-d]pyrimidine-6-carboxylic acid dimethylamide]?
**A.** IC50 [1, 4]: 229 nM; IC50 [1, 5]: 152 nM; IC50 (CDK4/cyclin D1): 24 nM; IC50 (CDK1/cyclin B; […] CDK1/cyclin B): > 15 µM

**Q.** Which results are given for `CN(C)C(=O)c1cc2cnc(Nc3ccc(C(=O)N4C[C@H]5C[C@@H]4CN5)cn3)nc2n1C1CCCC1` [Example 49, 7-Cyclopentyl-2-[5-((R,R)-2,5-diaza-bicyclo[2.2.1]heptane-2-carbonyl)-pyridin-2-ylamino]-7H-pyrrolo[2,3-d]pyrimidine-6-carboxylic acid dimethylamide]?
**A.** IC50 [1, 2]: 52 to 431 nM; IC50 [1, 3]: 44 to 231 nM; IC50 (CDK4/cyclin D1): 45 nM; IC50 (CDK1/cyclin B; […] CDK1/cyclin B): > 15 µM

**Q.** Which IC50 [1, 2] does the source give for `Cc1nc(Nc2ncc3cc(C(=O)N(C)C)n(C4CCCC4)c3n2)ccc1C(=O)N1CC2CCC(C1)N2` [Example 50, 7-Cyclopentyl-2-[5-(3,8-diaza-bicyclo[3.2.1]octane-3-carbonyl)-6-methyl-pyridin-2-ylamino]-7H-pyrrolo[2,3-d]pyrimidine-6-carboxylic acid dimethylamide] here?
**A.** 90 nM

**Q.** What about the IC50 [1, 3] of the same molecule?
**A.** 41 nM

**Q.** And the IC50 (CDK4/cyclin D1)?
**A.** 21 nM

**Q.** What about the IC50 (CDK1/cyclin B; […] CDK1/cyclin B) of the same molecule?
**A.** > 15 µM

**Q.** Which IC50 [1, 4] does the source give for `Cc1cc(Nc2ncc3cc(C(=O)N(C)C)n(C4CCCC4)c3n2)ncc1C(=O)N1CC2CCC(C1)N2` [Example 51, 7-Cyclopentyl-2-[5-(3,8-diaza-bicyclo[3.2.1]octane-3-carbonyl)-4-methyl-pyridin-2-ylamino]-7H-pyrrolo[2,3-d]pyrimidine-6-carboxylic acid dimethylamide] here?
**A.** 60 nM

**Q.** And the IC50 [1, 5]?
**A.** 28 nM

**Q.** And the IC50 (CDK4/cyclin D1)?
**A.** 23 nM

**Q.** And the IC50 (CDK1/cyclin B; 0.25 nM CDK1/cyclin B)?
**A.** > 15 µM

**Q.** For `CN(C)C(=O)c1cc2cnc(Nc3ccc(C(=O)N4CC5CCC(C4)N5)cn3)nc2n1-c1ccc(C(C)(C)C)cc1` [Example 53, 7-(4-tert-Butyl-phenyl)-2-[5-(3,8-diaza-bicyclo[3.2.1]octane-3-carbonyl)-pyridin-2-ylamino]-7H-pyrrolo[2,3-d]pyrimidine-6-carboxylic acid dimethylamide], which IC50 [1, 2] is on record?
**A.** 7 to 27 nM

**Q.** What about the IC50 [1, 3] of the same molecule?
**A.** 7 to 14 nM

**Q.** And the IC50 (CDK4/cyclin D1)?
**A.** 3 nM

**Q.** What about the IC50 (CDK1/cyclin B; […] CDK1/cyclin B) of the same molecule?
**A.** > 15 µM

**Q.** How did the IC50 [1, 2] turn out when `CN(C)C(=O)c1cc2cnc(Nc3ccc(C(=O)N4CC5CCC(C4)N5)cn3)nc2n1-c1cccc(C(C)(C)C)c1` [Example 54, 7-(3-tert-Butyl-phenyl)-2-[5-(3,8-diaza-bicyclo[3.2.1]octane-3-carbonyl)-pyridin-2-ylamino]-7H-pyrrolo[2,3-d]pyrimidine-6-carboxylic acid dimethylamide] was run?
**A.** 8 to 47 nM

**Q.** And the IC50 [1, 3]?
**A.** 6 to 33 nM

**Q.** What about the IC50 (CDK4/cyclin D1) of the same molecule?
**A.** 3 nM

**Q.** And the IC50 (CDK1/cyclin B; […] CDK1/cyclin B)?
**A.** 1.99 µM

**Q.** For `CN(C)C(=O)c1cc2cnc(Nc3ccc(C(=O)N4CC5CCC(C4)N5)cn3)nc2n1C1CCN(C(C)(C)C)CC1` [Example 57, 7-(1-tert-Butyl-piperidin-4-yl)-2-[5-(3,8-diaza-bicyclo[3.2.1]octane-3-carbonyl)-pyridin-2-ylamino]-7H-pyrrolo[2,3-d]pyrimidine-6-carboxylic acid dimethylamide], which IC50 [1, 4] is on record?
**A.** > 10000 nM

**Q.** And the IC50 [1, 5]?
**A.** > 10000 nM

**Q.** What about the IC50 (CDK4/cyclin D1) of the same molecule?
**A.** 1570 nM

**Q.** What about the IC50 (CDK1/cyclin B; […] CDK1/cyclin B) of the same molecule?
**A.** > 15 µM

**Q.** `CN(C)C(=O)c1cc2cnc(Nc3ccc(C(=O)N4CC5CCC(C4)N5)cn3)nc2n1C(C)(C)C` [Example 58, 7-tert-Butyl-2-[5-(3,8-diaza-bicyclo[3.2.1]octane-3-carbonyl)-pyridin-2-ylamino]-7H-pyrrolo[2,3-d]pyrimidine-6-carboxylic acid dimethylamide] was tested. Which IC50 [1, 4] did it give?
**A.** 288 to 338 nM

**Q.** And the IC50 [1, 5]?
**A.** 105 to 188 nM

**Q.** What about the IC50 (CDK4/cyclin D1) of the same molecule?
**A.** 74 nM

**Q.** What about the IC50 (CDK1/cyclin B; […] CDK1/cyclin B) of the same molecule?
**A.** > 15 µM

**Q.** Which IC50 [1, 4] does the source give for `CSCC[C@@H](N)C(=O)N1C2CCC1CN(C(=O)c1ccc(Nc3ncc4cc(C(=O)N(C)C)n(C5CCCC5)c4n3)nc1)C2` [Example 59, 2-{5-[8-((R)-2-Amino-4-methylsulfanyl-butyryl)-3,8-diaza-bicyclo[3.2.1]octane-3-carbonyl]-pyridin-2-ylamino}-7-cyclopentyl-7H-pyrrolo[2,3-d]pyrimidine-6-carboxylic acid dimethylamide] here?
**A.** > 10000 nM

**Q.** What about the IC50 [1, 5] of the same molecule?
**A.** 2500 nM

**Q.** What about the IC50 (CDK4/cyclin D1) of the same molecule?
**A.** 8 nM

**Q.** What about the IC50 (CDK1/cyclin B; […] CDK1/cyclin B) of the same molecule?
**A.** > 15 µM

**Q.** For `CN(C)C(=O)c1cc2cnc(Nc3ccc(C(=O)N4CC5CCC(C4)N5C(=O)CN)cn3)nc2n1C1CCCC1` [Example 60, 2-{5-[8-(2-Amino-acetyl)-3,8-diaza-bicyclo[3.2.1]octane-3-carbonyl]-pyridin-2-ylamino}-7-cyclopentyl-7H-pyrrolo[2,3-d]pyrimidine-6-carboxylic acid dimethylamide], which IC50 [1, 4] is on record?
**A.** 47 nM

**Q.** And the IC50 [1, 5]?
**A.** 21 nM

**Q.** What about the IC50 (CDK4/cyclin D1) of the same molecule?
**A.** 19 nM

**Q.** And the IC50 (CDK1/cyclin B; […] CDK1/cyclin B)?
**A.** > 15 µM

**Q.** `CN(C)C(=O)c1cc2cnc(Nc3ccc(C(=O)N4CC5CCC(C4)N5C(=O)C4CCCN4)cn3)nc2n1C1CCCC1` (stereo not shown) [Example 61, 7-Cyclopentyl-2-{5-[8-(pyrrolidine-2-carbonyl)-3,8-diaza-bicyclo[3.2.1]octane-3-carbonyl]-pyridin-2-ylamino}-7H-pyrrolo[2,3-d]pyrimidine-6-carboxylic acid dimethylamide] was tested. Which IC50 [1, 4] did it give?
**A.** 53 nM

**Q.** What about the IC50 [1, 5] of the same molecule?
**A.** 21 nM

**Q.** And the IC50 (CDK4/cyclin D1)?
**A.** 20 nM

**Q.** What about the IC50 (CDK1/cyclin B; […] CDK1/cyclin B) of the same molecule?
**A.** > 15 µM

**Q.** Which IC50 [1, 4] does the source give for `CC(C)[C@@H](N)C(=O)N1C2CCC1CN(C(=O)c1ccc(Nc3ncc4cc(C(=O)N(C)C)n(C5CCCC5)c4n3)nc1)C2` [Example 62, 2-{5-[8-((R)-2-Amino-3-methyl-butyryl)-3,8-diaza-bicyclo[3.2.1]octane-3-carbonyl]-pyridin-2-ylamino}-7-cyclopentyl-7H-pyrrolo[2,3-d]pyrimidine-6-carboxylic acid dimethylamide] here?
**A.** 723 nM

**Q.** What about the IC50 [1, 5] of the same molecule?
**A.** 291 nM

**Q.** What about the IC50 (CDK4/cyclin D1) of the same molecule?
**A.** 10 nM

**Q.** And the IC50 (CDK1/cyclin B; […] CDK1/cyclin B)?
**A.** 39.9 µM
